One assay addresses T1, MMP-1 (Homo sapiens, UniProt P03956).
T1 construct: made in house; host or cells: MMP-1-transfected HT-1080 cells (spent media)
T1 sequence (P03956 100-469): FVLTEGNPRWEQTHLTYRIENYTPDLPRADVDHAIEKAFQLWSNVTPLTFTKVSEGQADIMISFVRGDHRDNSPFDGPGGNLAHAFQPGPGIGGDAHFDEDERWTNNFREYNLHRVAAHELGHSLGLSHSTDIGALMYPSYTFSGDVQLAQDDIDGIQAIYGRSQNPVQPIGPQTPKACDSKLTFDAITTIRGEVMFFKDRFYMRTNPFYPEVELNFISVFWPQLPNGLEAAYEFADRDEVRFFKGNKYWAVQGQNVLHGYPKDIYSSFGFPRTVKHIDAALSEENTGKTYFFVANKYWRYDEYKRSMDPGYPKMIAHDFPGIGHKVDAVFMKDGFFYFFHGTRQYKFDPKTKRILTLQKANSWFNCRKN
Nature of the assay: In vitro MMP inhibition, Ki determination (fluorogenic substrate II). The note with it: value not in parenthesis; read-out: MMP-1 Ki. In kind it is biochemical.

The target of the next assay is T2, MMP-2 (Homo sapiens, UniProt P08253).
T2 construct: made in house; host or cells: MMP-2-transfected p2AHT2 cells
T2 sequence (P08253 110-660): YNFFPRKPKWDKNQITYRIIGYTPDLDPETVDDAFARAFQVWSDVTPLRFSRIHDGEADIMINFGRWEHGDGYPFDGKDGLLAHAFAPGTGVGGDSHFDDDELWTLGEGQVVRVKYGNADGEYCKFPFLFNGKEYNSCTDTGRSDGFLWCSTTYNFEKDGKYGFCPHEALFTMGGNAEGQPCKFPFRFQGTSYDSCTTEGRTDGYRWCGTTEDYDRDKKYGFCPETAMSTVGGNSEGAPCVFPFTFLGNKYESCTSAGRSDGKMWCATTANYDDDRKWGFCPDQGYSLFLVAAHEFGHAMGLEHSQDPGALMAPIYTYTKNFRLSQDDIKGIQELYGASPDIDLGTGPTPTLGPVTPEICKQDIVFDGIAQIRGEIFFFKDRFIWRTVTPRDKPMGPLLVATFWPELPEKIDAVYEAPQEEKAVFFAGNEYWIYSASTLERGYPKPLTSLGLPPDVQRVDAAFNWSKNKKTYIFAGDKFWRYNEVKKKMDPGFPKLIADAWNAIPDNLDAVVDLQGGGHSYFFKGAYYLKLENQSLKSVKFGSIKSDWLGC
The assay is described as above. In kind it is biochemical. The note with it: value not in parenthesis; read-out: MMP-2 Ki.

What is called Ki is the dissociation constant of the complex between target and ligand, obtained from inhibition or displacement. Regarding `CCCCc1ccc(C2CCN(S(=O)(=O)C3(C(=O)NO)CCN(CCOC)CC3)CC2)s1` [Example 55], the values for the Ki on MMP-1 and at MMP-2 were greater than 10000 nM and 2.2 nM, respectively.
Taken in the same sequence, the figures for `O=C(NO)C1(S(=O)(=O)N2CCN(c3ccc(COCC(F)(F)C(F)F)cc3)CC2)CCOCC1` [Example 71] were greater than 10000 nM and 2.35 nM.
Taken in the same sequence, the figures for `O=C(NO)C1(S(=O)(=O)N2CCN(c3ccc(COCC(F)(F)F)cc3)CC2)CCOCC1` [Example 72] were greater than 10000 nM and 2.44 nM.
Taken in the same sequence, the figures for `O=C(NO)C1(S(=O)(=O)N2CCN(c3ccc(OC4CCC4)c(F)c3)CC2)CCOCC1` [Example 73] were greater than 10000 nM and 2.2 nM.
Turning to `O=C(NO)C1(S(=O)(=O)N2CCN(c3ccc(OCc4ccccc4)cn3)CC2)CCOCC1` [Example 74], the Ki at MMP-1 was found to be 3210 nM; at MMP-2, 0.5 nM.
Taken in the same sequence, the figures for `O=C(NO)C1(S(=O)(=O)N2CCN(c3ccc(-c4ccccc4)cc3)CC2)CCOCC1` [Example 76] were 1340 nM and 0.19 nM.
Taken in the same sequence, the figures for `O=C(NO)C1(S(=O)(=O)N2CCN(c3ccc(CCC(F)(F)F)cc3)CC2)CCOCC1` [Example 77] were greater than 10000 nM and 0.38 nM.
Turning to `CCN1CCC(C(=O)NO)(S(=O)(=O)N2CCN(c3ccc(OCCCC(F)(F)F)cc3)CC2)CC1` [Example 78], the values for the Ki at MMP-1 and at MMP-2 were greater than 10000 nM and 2.56 nM, respectively.
Taken in the same sequence, the figures for `CC(C)COc1ccc(N2CCN(S(=O)(=O)C3(C(=O)NO)CCOCC3)CC2)cc1Cl` [Example 79] were greater than 10000 nM and 10.1 nM.
Taken in the same sequence, the figures for `O=C(NO)C1(S(=O)(=O)N2CCN(c3ccc(OCCCC(F)(F)F)cc3F)CC2)CCOCC1` [Example 81] were greater than 10000 nM and 0.407 nM.
In the case of `O=C(NO)C1(S(=O)(=O)N2CCN(c3cccc(C(F)(F)F)c3)CC2)CCOCC1` [Example 82], the values for the Ki at MMP-1 and at MMP-2 were greater than 10000 nM and 8.74 nM, respectively.
Taken in the same sequence, the figures for `O=C(NO)C1(S(=O)(=O)N2CCN(c3ccc(OCCCC(F)(F)F)cn3)CC2)CCOCC1` [Example 83] were 2850 nM and 0.251 nM.
Taken in the same sequence, the figures for `CCCCOc1ccc(N2CCN(S(=O)(=O)C3(C(=O)NO)CCN(C(C)(C)C)CC3)CC2)c(F)c1` [Example 84] were greater than 10000 nM and 7.53 nM.
Taken in the same sequence, the figures for `CCCCOc1ccc(N2CCN(S(=O)(=O)C3(C(=O)NO)Cc4ccccc4C3)CC2)nc1` [Example 85] were 4770 nM and 0.64 nM.
Regarding `COCCN1CCC(C(=O)NO)(S(=O)(=O)N2CCN(c3ccc(OCCCCF)cc3)CC2)CC1` [Example 88], the Ki at MMP-1 is greater than 10000 nM; at MMP-2 it was 0.54 nM.
Taken in the same sequence, the figures for `O=C(NO)C1(S(=O)(=O)N2CCN(c3ccc(OCCCCF)cc3)CC2)CCOCC1` [Example 89] were greater than 10000 nM and 0.49 nM.
As for `CCCCOc1ccc(N2CCN(S(=O)(=O)C3(C(=O)NO)CCOCC3)CC2)c(F)c1` [Example 90], the Ki on MMP-1 was greater than 10000 nM; at MMP-2 it was 1.68 nM.
For `CCCCc1ccc(N2CCN(S(=O)(=O)C3(C(=O)NO)CCOCC3)CC2)c(F)c1` [Example 91], the values for the Ki on MMP-1 and at MMP-2 were 5110 nM and 1.22 nM, respectively.
Taken in the same sequence, the figures for `CCCCOc1ccc(N2CCN(S(=O)(=O)C3(C(=O)NO)CCN(c4nc5ccccc5s4)CC3)CC2)cc1` [Example 93] were greater than 10000 nM and 6.92 nM.
Taken in the same sequence, the figures for `O=C(NO)C1(S(=O)(=O)N2CCN(c3ccc(C(F)(F)F)cn3)CC2)CCOCC1` [Example 94] were 767 nM and 0.66 nM.
Taken in the same sequence, the figures for `CCCCCc1ccc(N2CCN(S(=O)(=O)C3(C(=O)NO)CCN(c4ncccn4)CC3)CC2)nc1` [Example 95] were greater than 10000 nM and 0.64 nM.
Take `CCCCc1ccc(N2CCN(S(=O)(=O)C3(C(=O)NO)CCN(c4cccnc4)CC3)CC2)nc1` [Example 96]: the Ki is greater than 10000 nM on MMP-1 and 0.2 nM on MMP-2.

Source of the values: patent US20050209278A1, “Piperidinyl- and piperazinyl-sulfonylmethyl hydroxamic acids and their use as protease inhibitors” (priority 2002, published 2005).
